Values quoted from earlier work as cited in patent US5503831A, “Lipase inhibitor derived from a defatted rice germ” (Yakurigaku Chuo Kenkyusho, priority 1993, dated 1996).

System: lipase
Conditions: in the presence of bile acids (sodium taurocholic acid for wheat germ protein), emulsified lipids

Substance	Action on lipase in the presence of bile acids
β-lactoglobulin	does not exert such an action
serum albumin	does not exert such an action
